The values below come from ChEMBL document CHEMBL1131989 (Bioorg Med Chem Lett, 1999).

For assay [1], the species on record is Cavia porcellus. The assay is described as follows: Concentration of compound required for evaluating efficacy in guinea pig ileum (GPI). The assay is classed as functional, organism-based.
The species entered for assay [2] is Mus musculus. The experiment in a line: Concentration of compound required for evaluating efficacy in mouse vas deferens (MVD). The assay is classed as functional, organism-based.
Assay [3] concerns the target Mu-type opioid receptor (Homo sapiens, UniProt P35372). The experiment in a line: In vitro binding affinity towards mu opioid receptors was determined using [3H][p-Cl-Phe]- 4] DPDPE or [3H]deltorphin II.
Assay [4] deals with Delta-type opioid receptor (Homo sapiens, UniProt P41143). The experiment in a line: In vitro binding affinity towards Opioid receptor delta 1 was determined using […].
Delta-type opioid receptor, sequence (P41143 whole entry): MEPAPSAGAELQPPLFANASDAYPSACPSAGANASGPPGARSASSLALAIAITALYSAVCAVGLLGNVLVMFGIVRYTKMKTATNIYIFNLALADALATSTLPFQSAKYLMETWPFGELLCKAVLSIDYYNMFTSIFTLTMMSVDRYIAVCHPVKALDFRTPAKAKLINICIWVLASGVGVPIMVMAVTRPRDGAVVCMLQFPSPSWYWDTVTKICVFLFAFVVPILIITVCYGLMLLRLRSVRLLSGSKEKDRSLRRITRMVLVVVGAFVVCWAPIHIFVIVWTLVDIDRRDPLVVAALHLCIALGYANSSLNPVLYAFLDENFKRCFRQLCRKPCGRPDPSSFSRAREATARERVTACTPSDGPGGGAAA

Mu-type opioid receptor, sequence (P35372 whole entry): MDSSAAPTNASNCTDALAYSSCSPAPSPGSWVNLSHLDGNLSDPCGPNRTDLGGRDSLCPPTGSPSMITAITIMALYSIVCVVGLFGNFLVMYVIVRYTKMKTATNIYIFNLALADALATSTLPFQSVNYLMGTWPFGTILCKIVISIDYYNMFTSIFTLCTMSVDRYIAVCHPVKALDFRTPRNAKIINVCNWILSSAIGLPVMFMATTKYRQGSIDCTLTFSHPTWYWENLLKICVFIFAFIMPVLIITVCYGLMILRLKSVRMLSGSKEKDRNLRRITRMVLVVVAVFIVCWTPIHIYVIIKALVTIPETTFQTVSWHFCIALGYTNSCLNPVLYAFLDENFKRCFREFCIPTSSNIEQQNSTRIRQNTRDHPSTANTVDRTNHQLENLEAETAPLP

Usually EC50 stands for the concentration at which the effect is half-maximal. A low value points to higher potency in that assay. What is called IC50 is the concentration that inhibits the measured activity by half. Turning to `CCCC[C@@H](N)C(=O)NNC(=O)[C@H](Cc1ccccc1)NC(=O)CNC(=O)[C@@H](C)NC(=O)[C@@H](N)Cc1ccc(O)cc1`, the concentration giving a half-maximal response (EC50) was 5.2 nM in assay [1] and 95 nM in assay [2]. Moreover, the half-inhibitory concentration (IC50) in assay [3] was 5.9 nM; in assay [4], 71 nM.
For the compound `C[C@@H](NC(=O)[C@@H](N)Cc1ccc(O)cc1)C(=O)NCC(=O)N[C@@H](Cc1c[nH]c2ccccc12)C(=O)NNC(=O)[C@H](N)Cc1ccccc1`, the EC50 stood at 26 nM in assay [1] and 130 nM in assay [2]. For the same compound, the IC50 in assay [3] turned out to be 8.3 nM; in assay [4] it was 46 nM.
For `CCCC[C@H](N)C(=O)NNC(=O)[C@H](Cc1ccccc1)NC(=O)CNC(=O)[C@@H](C)NC(=O)[C@@H](N)Cc1ccc(O)cc1`, the half-maximal effective concentration (EC50) was found to be 24 nM in assay [1] and 20 nM in assay [2]. Moreover, the 50% inhibitory concentration (IC50) in assay [3] came out at 1.3 nM; in assay [4], 21 nM.
On to `C[C@@H](NC(=O)[C@@H](N)Cc1ccc(O)cc1)C(=O)NCC(=O)N[C@@H](Cc1ccccc1)C(=O)NNC(=O)[C@H](N)Cc1ccccc1`, for which the EC50 in assay [1] worked out at 2.4 nM; in assay [2], 27 nM. Also, the IC50 in assay [3] was 0.74 nM; in assay [4] it was 15 nM.
Take `C[C@@H](NC(=O)[C@@H](N)Cc1ccc(O)cc1)C(=O)NCC(=O)N[C@@H](Cc1ccccc1)C(=O)NNC(=O)[C@H](N)Cc1ccc(O)cc1`: the EC50 in assay [1] stood at 15 nM; in assay [2], 45 nM. Further, the IC50 is 1.6 nM in assay [3] and 16 nM in assay [4].
As to `C[C@@H](NC(=O)[C@@H](N)Cc1ccc(O)cc1)C(=O)NCC(=O)N[C@@H](Cc1ccccc1)C(=O)NN`, the results for the EC50 in assay [1] and in assay [2] were 90 nM and 290 nM, respectively. The half-maximal inhibitory concentration (IC50) was found to be 4.7 nM in assay [3] and 230 nM in assay [4].
In the case of `C[C@@H](NC(=O)[C@@H](N)Cc1ccc(O)cc1)C(=O)NCC(=O)N[C@@H](Cc1ccccc1)C(=O)NNC(=O)[C@H](N)Cc1c[nH]c2ccccc12`, the EC50 in assay [1] was determined as 7.1 nM; in assay [2], 15 nM. Further, the IC50 in assay [3] came to 2 nM; in assay [4], 29 nM.
The matching figures for `C[C@@H](NC(=O)[C@@H](N)Cc1ccc(O)cc1)C(=O)NCC(=O)N[C@@H](Cc1ccccc1)C(=O)NNC(=O)[C@@H](N)Cc1ccccc1`: 9.8 nM, 32 nM, 0.88 nM and 30 nM.
As for `C[C@@H](NC(=O)[C@@H](N)Cc1ccc(O)cc1)C(=O)NCC(=O)N[C@@H](Cc1ccccc1)C(=O)NNC(=O)[C@H](Cc1ccccc1)NC(=O)CNC(=O)[C@@H](C)NC(=O)[C@@H](N)Cc1ccc(O)cc1` [BIPHALIN], the concentration giving a half-maximal response (EC50) is 8.8 nM in assay [1] and 27 nM in assay [2]. The IC50 in assay [3] amounted to 1.4 nM.
